In patent US10167256B2, “Psychotrophic agents and uses thereof” (LB PHARMACEUTICALS INC., priority 2016, dated 2019):

How the values were obtained:
D1 receptor = D1 receptor (Homo sapiens (Human), UniProt P21728); conditions: cited from earlier work
5-HT2a receptor = 5-HT2a receptor (Homo sapiens (Human), UniProt P28223); conditions: cited from earlier work
D5 receptor = D5 receptor (Homo sapiens (Human), UniProt P21918); conditions: cited from earlier work
[1] = system: histamine receptor subtypes; conditions: cited from earlier work
[2] = system: alpha-adrenergic receptor subtypes; conditions: cited from earlier work
[3] = system: serotonin receptor subtypes; conditions: cited from earlier work
in vitro = conditions: PAMPA
muscarinic receptors = conditions: cited from earlier work
[4] = 2014 study, 30 psychiatric drugs; cited from earlier work
[5] = PAMPA
sigma sites = conditions: cited from earlier work
D4 receptor = D4 receptor (Homo sapiens (Human), UniProt P21917); conditions: cited from earlier work
Chain of D4 receptor (P21917 whole entry): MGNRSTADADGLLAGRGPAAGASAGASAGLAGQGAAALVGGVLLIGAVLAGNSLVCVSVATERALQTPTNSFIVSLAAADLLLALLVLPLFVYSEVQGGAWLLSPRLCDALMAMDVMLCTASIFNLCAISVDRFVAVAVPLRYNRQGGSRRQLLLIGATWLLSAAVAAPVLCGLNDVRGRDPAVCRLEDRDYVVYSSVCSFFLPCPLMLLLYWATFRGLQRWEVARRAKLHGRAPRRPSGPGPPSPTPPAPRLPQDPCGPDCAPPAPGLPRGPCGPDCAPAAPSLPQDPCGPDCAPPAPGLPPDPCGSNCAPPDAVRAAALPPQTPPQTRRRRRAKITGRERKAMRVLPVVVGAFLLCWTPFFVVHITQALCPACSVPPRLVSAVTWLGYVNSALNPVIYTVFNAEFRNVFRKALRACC

α2 (non-selective) = test: Reference ligand displacement, α2 (non-selective); assay type: binding; conditions: α-2A (non-selective); reference ligand prazosin
Description: (§1) The ability of Compound 102 and 103 to bind α2 (non-selective), α2A, α2B, α2C, 5-HT2A (agonist), 5-HT2A (antagonist), D2L, D2S, and D3 was measured at concentrations ranging from 10×10^−5 to 10×10^−9 M and measuring displacement of reference ligands (prazosin for α2 (non-selective), yohimbine for α2A, α2B and α2C, DOI ([2,5-dimethoxy-4-iodophenyl]-2-aminopropane) for 5-HT2A (agonist), ketanserine for 5-HT2A (antagonist), butaclamol for D2L, 7-OH-DPAT for D2S, and (+) blutaclamol for D3). bound to the respective isolated receptor.

α-2B(h) = α-2B(h) (Homo sapiens (Human), UniProt P18089); test: Reference ligand displacement, α2B; assay type: binding; conditions: yohimbine
Chain of α-2B(h) (P18089 whole entry): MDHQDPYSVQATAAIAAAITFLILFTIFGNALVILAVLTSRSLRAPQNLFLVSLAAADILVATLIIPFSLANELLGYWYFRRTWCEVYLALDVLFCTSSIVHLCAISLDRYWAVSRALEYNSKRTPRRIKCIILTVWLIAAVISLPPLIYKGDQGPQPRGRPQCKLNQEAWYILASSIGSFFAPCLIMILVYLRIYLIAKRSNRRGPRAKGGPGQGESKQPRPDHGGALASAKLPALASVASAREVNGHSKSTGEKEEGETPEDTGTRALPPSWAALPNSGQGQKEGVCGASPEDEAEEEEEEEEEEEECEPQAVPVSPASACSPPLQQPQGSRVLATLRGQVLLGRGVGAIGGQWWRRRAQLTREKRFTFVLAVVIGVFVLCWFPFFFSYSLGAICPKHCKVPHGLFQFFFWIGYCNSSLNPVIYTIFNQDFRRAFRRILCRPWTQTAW
Description: as §1

5-HT7 = 5-HT7 (Homo sapiens (Human), UniProt P34969); test: Reference ligand displacement, 5-HT7; assay type: binding
Chain of 5-HT7 (P34969 whole entry, species assumed): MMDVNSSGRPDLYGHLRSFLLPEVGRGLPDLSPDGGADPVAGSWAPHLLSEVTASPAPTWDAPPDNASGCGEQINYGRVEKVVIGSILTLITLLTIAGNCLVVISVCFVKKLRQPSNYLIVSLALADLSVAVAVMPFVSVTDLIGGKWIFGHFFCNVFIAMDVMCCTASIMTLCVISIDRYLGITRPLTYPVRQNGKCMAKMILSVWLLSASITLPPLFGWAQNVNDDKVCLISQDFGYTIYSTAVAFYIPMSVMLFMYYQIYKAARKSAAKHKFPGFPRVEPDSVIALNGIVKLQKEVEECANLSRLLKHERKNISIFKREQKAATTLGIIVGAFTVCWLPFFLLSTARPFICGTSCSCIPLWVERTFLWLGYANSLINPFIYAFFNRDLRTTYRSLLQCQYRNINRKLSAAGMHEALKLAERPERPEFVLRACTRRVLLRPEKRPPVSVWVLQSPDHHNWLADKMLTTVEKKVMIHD

α-2A(h) = α-2A(h) (Homo sapiens (Human), UniProt P08913); test: Reference ligand displacement, α2A; assay type: binding; conditions: yohimbine
Chain of α-2A(h) (P08913 whole entry): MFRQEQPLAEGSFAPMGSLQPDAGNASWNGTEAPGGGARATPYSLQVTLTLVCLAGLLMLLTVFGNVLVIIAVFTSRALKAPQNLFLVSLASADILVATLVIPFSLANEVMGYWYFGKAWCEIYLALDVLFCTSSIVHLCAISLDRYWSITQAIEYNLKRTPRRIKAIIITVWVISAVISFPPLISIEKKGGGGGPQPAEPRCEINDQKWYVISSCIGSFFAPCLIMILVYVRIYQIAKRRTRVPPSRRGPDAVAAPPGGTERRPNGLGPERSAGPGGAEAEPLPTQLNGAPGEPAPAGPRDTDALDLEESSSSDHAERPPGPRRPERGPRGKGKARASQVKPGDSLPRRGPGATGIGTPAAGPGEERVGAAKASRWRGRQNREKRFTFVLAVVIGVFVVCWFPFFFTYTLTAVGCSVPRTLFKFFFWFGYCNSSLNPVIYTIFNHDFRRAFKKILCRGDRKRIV
Description: as §1

[6] = system: rats dosed with amphetamine; test: Amphetamine-induced Locomotor Activity (LMA) assay; assay type: in vivo; conditions: 30 mg/kg orally, 6 hours post dosing, total ambulatory distance over 1 hour
Description: Efficacy of Compounds 102 and 103 was studied in rats in an amphetamine-induced Locomotor Activity (LMA) assay, a measure of positive aspects of the PANSS scale. In the LMA assay rats were dosed with amphetamine (Amp, 1 mg/kg, s.c.), causing excessive movement, in a cage with sensors that monitored how far each rat moved.
Distance moved, over the course of an hour, was measured 6 hours post dosing for Compounds 102 and 103 and amisulpride-risperidone was dosed 1 hour prior to measurement. The endpoint of this study was total ambulatory distance (the distance traveled by each animal in the cage). Total ambulatory distance data from this amphetamine induced LMA study are summarized in FIG. 2 (*: p<0.01; *: p<0.05).

D3 = D3 (Homo sapiens (Human), UniProt P35462); test: Reference ligand displacement, D3; assay type: binding; conditions: (+) butaclamol
Chain of D3 (P35462 whole entry): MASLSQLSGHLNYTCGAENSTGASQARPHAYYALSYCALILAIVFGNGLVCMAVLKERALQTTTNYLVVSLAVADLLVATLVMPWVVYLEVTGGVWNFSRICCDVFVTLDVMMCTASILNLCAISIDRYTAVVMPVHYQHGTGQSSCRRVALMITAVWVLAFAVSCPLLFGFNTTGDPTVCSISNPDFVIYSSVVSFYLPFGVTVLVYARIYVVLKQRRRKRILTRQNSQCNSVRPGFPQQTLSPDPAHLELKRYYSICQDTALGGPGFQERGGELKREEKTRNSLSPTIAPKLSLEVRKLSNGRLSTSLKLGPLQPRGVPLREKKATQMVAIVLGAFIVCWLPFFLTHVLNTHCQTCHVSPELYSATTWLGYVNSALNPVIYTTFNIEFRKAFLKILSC
Description: as §1

α-2C(h) = α-2C(h) (Homo sapiens (Human), UniProt P18825); test: Reference ligand displacement, α2C; assay type: binding; conditions: yohimbine
Chain of α-2C(h) (P18825 whole entry): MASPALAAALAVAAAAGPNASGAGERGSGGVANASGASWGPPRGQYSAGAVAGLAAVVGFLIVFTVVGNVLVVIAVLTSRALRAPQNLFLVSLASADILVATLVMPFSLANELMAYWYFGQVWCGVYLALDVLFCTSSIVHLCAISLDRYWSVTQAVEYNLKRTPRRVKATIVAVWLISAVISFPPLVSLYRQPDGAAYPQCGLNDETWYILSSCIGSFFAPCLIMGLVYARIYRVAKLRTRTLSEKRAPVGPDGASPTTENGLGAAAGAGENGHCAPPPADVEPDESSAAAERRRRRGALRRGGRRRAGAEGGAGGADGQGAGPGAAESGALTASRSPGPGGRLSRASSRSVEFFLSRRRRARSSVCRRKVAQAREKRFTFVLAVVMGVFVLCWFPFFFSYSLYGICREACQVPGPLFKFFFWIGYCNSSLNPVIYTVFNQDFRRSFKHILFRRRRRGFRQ
Description: as §1

5-HT2a (agonist) = 5-HT2a (agonist) (Homo sapiens (Human), UniProt P28223); test: Reference ligand displacement, 5-HT2A (agonist); assay type: binding; conditions: DOI
Chain of 5-HT2a (agonist) (P28223 whole entry, species assumed): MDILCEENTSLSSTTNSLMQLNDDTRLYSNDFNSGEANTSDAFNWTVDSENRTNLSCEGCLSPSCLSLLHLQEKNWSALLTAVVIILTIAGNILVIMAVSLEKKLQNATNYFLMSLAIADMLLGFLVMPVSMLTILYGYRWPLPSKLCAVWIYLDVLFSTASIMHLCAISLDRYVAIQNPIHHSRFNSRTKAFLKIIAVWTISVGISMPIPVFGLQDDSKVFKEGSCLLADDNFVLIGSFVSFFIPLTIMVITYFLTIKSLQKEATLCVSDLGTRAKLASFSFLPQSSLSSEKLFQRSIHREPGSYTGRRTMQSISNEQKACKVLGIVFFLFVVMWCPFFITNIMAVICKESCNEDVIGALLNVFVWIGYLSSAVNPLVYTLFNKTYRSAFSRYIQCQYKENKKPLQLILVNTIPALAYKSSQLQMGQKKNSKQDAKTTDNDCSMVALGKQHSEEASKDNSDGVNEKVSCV
Description: as §1

dopamine D2 receptors [7] = molecular target: T1, dopamine D2 receptors (Homo sapiens (Human), UniProt P14416); test: Dopamine D2 receptor cell-based assay (calcium fluorescence, dopamine at EC80)
T1 sequence (P14416 whole entry): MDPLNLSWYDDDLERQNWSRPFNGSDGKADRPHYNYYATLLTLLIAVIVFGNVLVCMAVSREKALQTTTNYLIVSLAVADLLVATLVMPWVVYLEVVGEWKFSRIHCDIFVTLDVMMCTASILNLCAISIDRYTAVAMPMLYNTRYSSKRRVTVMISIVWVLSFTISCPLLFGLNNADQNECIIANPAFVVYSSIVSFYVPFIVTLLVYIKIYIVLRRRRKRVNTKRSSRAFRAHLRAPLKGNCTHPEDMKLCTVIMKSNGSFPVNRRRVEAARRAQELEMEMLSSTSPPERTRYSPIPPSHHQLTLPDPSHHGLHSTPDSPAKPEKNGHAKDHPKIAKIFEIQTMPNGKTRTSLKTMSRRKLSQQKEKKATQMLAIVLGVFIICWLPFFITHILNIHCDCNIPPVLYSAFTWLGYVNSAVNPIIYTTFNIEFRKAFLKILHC
Description: Dopamine D2 receptor cells were seeded in a half a black, clear-bottomed 96 well plate. At a density of 15,000 cells/well to a volume of 25 μL and were left to incubate overnight. Calcium 5 dye in HEPES buffered HBSS (Hanks' balanced salt solution) was prepared and 10 μL was added to each well and the mixture was left to sit at 37° C. for 1 hour. After equilibration, 5 μL of the test compound and controls were added to the wells and incubated at room temperature for 10 minutes.

dopamine D2 receptors [8] = molecular target: T1, dopamine D2 receptors; test: Dopamine D2 receptor membrane preparation, 3H spiperone binding; conditions: membrane based assay, 0.1 nM 3H spiperone
Description: Radioactivity was measured using a Packard Topcount.

D2L = D2L (Homo sapiens (Human), UniProt P14416); test: Reference ligand displacement, D2L; assay type: binding; conditions: butaclamol
Chain of D2L (P14416 whole entry): as above
Description: as §1

D2S = D2S (Homo sapiens (Human), UniProt P14416); test: Reference ligand displacement, D2S; assay type: binding; conditions: 7-OH-DPAT
Chain of D2S (P14416 other isoform, or with tags, fused parts or gaps): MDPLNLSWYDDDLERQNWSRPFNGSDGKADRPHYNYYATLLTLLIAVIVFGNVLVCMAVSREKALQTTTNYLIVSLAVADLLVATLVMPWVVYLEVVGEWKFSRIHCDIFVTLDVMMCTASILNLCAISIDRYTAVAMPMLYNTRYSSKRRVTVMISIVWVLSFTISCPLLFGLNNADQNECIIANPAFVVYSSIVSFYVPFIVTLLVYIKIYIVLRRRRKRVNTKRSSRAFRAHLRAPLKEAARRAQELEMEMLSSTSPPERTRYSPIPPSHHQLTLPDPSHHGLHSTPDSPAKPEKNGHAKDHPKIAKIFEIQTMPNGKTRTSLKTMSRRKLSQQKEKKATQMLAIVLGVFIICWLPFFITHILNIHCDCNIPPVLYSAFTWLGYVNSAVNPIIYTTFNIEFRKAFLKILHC
Description: as §1

PCP-treated rats = test: Novel Object Recognition (NOR) assay, sub-chronic PCP; assay type: in vivo; conditions: PO; for difference between novel and familiar object exploration time: 3 hours post-dose, all doses save one; for known object exploration behavior in rats treated with PCP: compared with untreated rats, amisulpride and risperidone
Description: Efficacy of Compounds 102 and 103 was evaluated in rats in a Novel Object Recognition (NOR) assay, a well-established model recapitulating cognitive and negative aspects of the PANSS scale of schizophrenia. In this assay, animals were treated for several weeks with a low dose of phencyclidine (PCP) to impair the ability of the rat to discern between novel and familiar objects. Typically rats, like humans, would spend more time exploring a novel object than a familiar one.
Rats (n=10/group) were dosed with 2 mg/kg intraperitoneal twice a day (i.p., b.i.d.) for seven days followed by 7 days drug free. […] Novel object exploration time was measured for the test subjects from a sub-chronic PCP NOR study in rats (n=10/group). The differences in exploration time between novel (Tnovel¬) and familiar (Tfamliar) objects are depicted in FIG. 1A (*: p<0.05; and *: p<0.01).

5-HT2a (antagonist) = 5-HT2a (antagonist) (Homo sapiens (Human), UniProt P28223); test: Reference ligand displacement, 5-HT2A (antagonist); assay type: binding; conditions: ketanserine
Chain of 5-HT2a (antagonist) (P28223 whole entry, species assumed): as the sequence (P28223 whole entry, species assumed) above
Description: as §1

Chain of D1 receptor (P21728 whole entry): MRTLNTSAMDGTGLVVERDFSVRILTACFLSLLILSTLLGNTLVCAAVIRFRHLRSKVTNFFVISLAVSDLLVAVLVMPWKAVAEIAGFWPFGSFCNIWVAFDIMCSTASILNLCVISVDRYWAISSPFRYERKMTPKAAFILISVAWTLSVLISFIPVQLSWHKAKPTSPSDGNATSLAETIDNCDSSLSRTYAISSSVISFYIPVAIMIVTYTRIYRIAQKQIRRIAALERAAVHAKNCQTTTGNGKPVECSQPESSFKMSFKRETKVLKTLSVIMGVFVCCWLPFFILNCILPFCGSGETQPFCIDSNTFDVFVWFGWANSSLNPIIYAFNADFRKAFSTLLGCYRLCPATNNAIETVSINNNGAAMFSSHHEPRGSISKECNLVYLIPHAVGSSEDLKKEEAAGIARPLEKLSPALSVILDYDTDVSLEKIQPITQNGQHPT

| Papp (in vitro; pH 5) [×10⁻⁶ cm/s] | Papp (in vitro; pH 7.4) [×10⁻⁶ cm/s] | Structure (SMILES) | Permeability (cm/s) pH 7.4 [5] | IC50 (α2 (non-selective)) [nM] | Ki (α2 (non-selective)) [nM] | normalized amphetamine hyperactivity compared to amisulpride [6] | IC50 (D3) [nM] | Ki (D3) [nM] | IC50 (5-HT2a (agonist)) [nM] | Ki (5-HT2a (agonist)) [nM] | IC50 (D2L) [nM] | Ki (D2L) [nM] | IC50 (D2S) [nM] | Ki (D2S) [nM] | difference between novel and familiar object exploration time (PCP-treated rats) | known object exploration behavior in rats treated with PCP (PCP-treated rats) | IC50 (5-HT2a (antagonist)) [nM] | Ki (5-HT2a (antagonist)) [nM] | further results |
| --- | --- | --- | --- | --- | --- | --- | --- | --- | --- | --- | --- | --- | --- | --- | --- | --- | --- | --- | --- |
| 0.021 | 0.0052 | CCN1CCCC1CNC(=O)c1cc(S(=O)(=O)CC)c(NC)cc1OC (stereo not shown) [Compound 102] | – | 95 | 41 | statistically superior to that of amisulpride | 11 | 2.5 | 270 | 200 | 2.7 | 0.66 | 8.4 | 3.4 | increased the difference between novel and familiar object exploration time | able to restore known object exploration behavior in rats treated with PCP to levels similar to untreated rats | 890 | 490 | IC50 (α-2B(h)): 170 nM; Ki (α-2B(h)): 110 nM; IC50 (5-HT7): 74 nM; Ki (5-HT7): 27 nM; IC50 (α-2A(h)): 480 nM; Ki (α-2A(h)): 220 nM; IC50 (α-2C(h)): 790 nM; Ki (α-2C(h)): 240 nM; IC50 (dopamine D2 receptors [7]): 8.9 nM; IC50 (dopamine D2 receptors [8]): 8.2 nM |
| – | – | CCN1CCC[C@H]1CNC(=O)c1cc(S(=O)(=O)CC)c(NC)cc1OC [Compound 103, ((S)-4-methylamino-N-((1-ethyl-2-pyrrolidinyl)methyl)-5-(ethylsulfonyl))-2-methoxybenzamide] | – | 150 | 6.7 | statistically indistinguishable from that of amisulpride | 5.5 | 1.2 | 550 | 410 | 1.7 | 0.41 | 1.4 | 0.56 | increased the difference between novel and familiar object exploration time | able to restore known object exploration behavior in rats treated with PCP to levels similar to untreated rats | 980 | 530 | – |
| 0.031 | 7.8 | CC(C)NCC(O)COc1cccc2ccccc12 (stereo not shown) [Promanolol, propanolol] | – | – | – | – | – | – | – | – | – | – | – | – | – | – | – | – | – |
| – | – | CNC(=C[N+](=O)[O-])NCCSCc1ccc(CN(C)C)o1 [Ranitidine, ranitidine] | 1.5 × 10^−10 cm/s | – | – | – | – | – | – | – | – | – | – | – | – | – | – | – | Permeability (cm/s) pH 5 ([5]; pH 5): 1.1 × 10^−10 cm/s |

| Structure (SMILES) | Papp (in vitro; pH 5) [×10⁻⁶ cm/s] | Papp (in vitro; pH 7.4) [×10⁻⁶ cm/s] | Permeability (cm/s) pH 7.4 [5] | IC50 (α2 (non-selective)) [nM] | Ki (α2 (non-selective)) [nM] | normalized amphetamine hyperactivity compared to amisulpride [6] | IC50 (D3) [nM] | Ki (D3) [nM] | IC50 (5-HT2a (agonist)) [nM] | Ki (5-HT2a (agonist)) [nM] | IC50 (D2L) [nM] | Ki (D2L) [nM] | IC50 (D2S) [nM] | Ki (D2S) [nM] | difference between novel and familiar object exploration time (PCP-treated rats) | known object exploration behavior in rats treated with PCP (PCP-treated rats) | IC50 (5-HT2a (antagonist)) [nM] | Ki (5-HT2a (antagonist)) [nM] | further results |
| --- | --- | --- | --- | --- | --- | --- | --- | --- | --- | --- | --- | --- | --- | --- | --- | --- | --- | --- | --- |
| CCN1CCCC1CNC(=O)c1cc(S(=O)(=O)CC)c(N)cc1OC (stereo not shown) [Amisulpride, 4-amino-N-(((1-ethyl-2-pyrrolidinyl)methyl)-5-(ethylsulfonyl))-2-methoxybenzamide] | 0.00024 | – | 2.4 × 10^−11 cm/s | – | – | – | – | – | – | – | – | – | – | – | – | – | – | – | affinity for D1 receptor subtype (D1 receptor): without any affinity; activity at the 5-HT2a receptor (5-HT2a receptor): not noted to have any activity; affinity for D5 receptor subtype (D5 receptor): without any affinity; affinity for histamine receptor subtypes [1]: low affinity; affinity for alpha-adrenergic receptor subtypes [2]: low affinity; affinity for serotonin receptor subtypes [3]: low affinity; affinity for muscarinic receptors (muscarinic receptors): low affinity; passive diffusion across a PAMPA membrane (Pe) [4]: lowest of 30 psychiatric drugs tested; affinity for sigma sites (sigma sites): low affinity; affinity for D4 receptor subtype (D4 receptor): without any affinity |
